Laboratory results published in paper PMC9085681, “Towards Optimized Bioavailability of ^99mTc-Labeled Barbiturates for Non-invasive Imaging of Matrix Metalloproteinase Activity” (Molecular Imaging and Biology, 2021).
Structures can show the parent of a compound that is named as a salt. Where two headings read alike, the source gives them in different places.

Assays:
[1] = distribution coefficient (logDexp), 1-octanol / PBS-buffer; type: physicochemical; details: 1-octanol / PBS-buffer pH = 7.4, 99mTc-labeled compound
Description: The serum stability of all radiolabeled compounds was evaluated by incubation in human and murine serum at 37 °C for up to 120 min and analyzed by HPLC. The distribution coefficients (logDexp) were determined in a two-phase system consisting of 1-octanol and PBS-buffer (pH = 7.4) according to the literature.
Following a method described by Prante et al.[13], the distribution coefficient (logDexp) of the radioactive compound was determined in a two-phase system consisting of 1-octanol and PBS-buffer (pH = 7.4) to determine the lipophilicity. For this purpose, the corresponding ligand (~ 20 kBq) was dissolved in buffer (500 μL). 1-Octanol (500 μL) was added and the mixture was shaken at room temperature for 1 min. To achieve phase separation, the system was centrifuged for 2 min at 3000 rpm. Subsequently a part of the octanol phase (400 μL) was removed and buffer (400 μL) was added. The combined phases were shaken and layers were separated according to the description above. Aliquots of the buffer and octanol layers (3 × 100 μL from every layer) were taken to measure radioactivity in a γ-counter. The measurement provided the activity in counts per minute (cpm), the values were decay corrected. By calculating the quotient of cpm (1-Octanol)cpm (PBS) the logDexp can be determined as logcpm (1-Octanol)cpm (PBS).

MMP-2 = molecular target: T1, MMP-2 (Homo sapiens, UniProt P08253); assay: in vitro MMP inhibition assay (fluorogenic substrate, protocol of Huang et al.); type: biochemical
T1 sequence (P08253 110-660): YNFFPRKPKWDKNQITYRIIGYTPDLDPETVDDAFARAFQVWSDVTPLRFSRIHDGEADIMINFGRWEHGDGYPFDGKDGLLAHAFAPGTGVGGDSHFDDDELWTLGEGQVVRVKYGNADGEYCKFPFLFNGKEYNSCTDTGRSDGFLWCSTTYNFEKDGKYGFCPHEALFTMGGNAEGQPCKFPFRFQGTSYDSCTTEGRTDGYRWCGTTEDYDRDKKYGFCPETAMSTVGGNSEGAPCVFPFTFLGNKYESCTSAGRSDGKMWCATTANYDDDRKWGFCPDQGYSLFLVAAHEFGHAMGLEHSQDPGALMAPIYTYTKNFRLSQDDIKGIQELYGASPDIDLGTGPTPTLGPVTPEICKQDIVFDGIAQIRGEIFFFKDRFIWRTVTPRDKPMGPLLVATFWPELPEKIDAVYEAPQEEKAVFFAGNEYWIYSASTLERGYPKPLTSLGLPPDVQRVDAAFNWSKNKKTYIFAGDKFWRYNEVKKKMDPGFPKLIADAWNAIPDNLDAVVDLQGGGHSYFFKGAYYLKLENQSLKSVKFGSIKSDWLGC
Description: (§1) In order to evaluate the affinity of the new barbiturate-based compounds towards MMPs, an in vitro inhibition study was performed. The IC50-values were determined for MMP-2, MMP-8, MMP-9, MMP-13, and […] using the protocol from Huang et al. Additionally, the corresponding precursors were also measured and outlined in the SI for comparison.
(§2) To determine the relative potency of new inhibitors in terms of IC50-values the method developed by Huang et al. was applied in an in vitro inhibition study.[14] Compounds of interest were evaluated regarding affinity to MMP-2, -8, -9, -13 and -14 using the artificial MMP-substrate (7-Methoxycoumarine-4-yl)-acetyl-Pro-Leu-Gly-Leu-[3-(2,4-dinitrophenyl)-l-2,3-diaminopropionyl]-Ala-Arg-NH2 (R&D Systems, Minneapolis, USA). The activated form of the corresponding MMPs (2 nM each) were incubated at 37 °C with the barbiturate derivatives in different concentrations (10 pM-1 mM) in TRIS-buffer (50 mM, pH = 7.5), sodium chloride (0.2M), calcium chloride (5 mM), zinc sulfate (20 µM) and Brij® (0.05%) for 30 min. Samples of this mixture (90 µL) were added to the substrate (50 µM, 10 µL) at 37 °C and the increase of fluorescence as a function of time was measured using a TriStar² LB 942 Analyzers (Berthold Technologies, λEx = 330 nm, λEm = 390 nm). The linear change of relative fluorescence after 10 min was plotted as a function of the concentration of the used inbhibitor. The IC50-values were determined by non-linear regression using the Grace 5.1.8 software (Linux).

MMP-13 = MMP-13 (Homo sapiens, UniProt P45452); assay: as above; type: biochemical
Description: as §1, §2

MMP-9 = MMP-9 (Homo sapiens, UniProt P14780); assay: as above; type: biochemical
Chain of MMP-9 (P14780 107-707 limits assumed, species assumed): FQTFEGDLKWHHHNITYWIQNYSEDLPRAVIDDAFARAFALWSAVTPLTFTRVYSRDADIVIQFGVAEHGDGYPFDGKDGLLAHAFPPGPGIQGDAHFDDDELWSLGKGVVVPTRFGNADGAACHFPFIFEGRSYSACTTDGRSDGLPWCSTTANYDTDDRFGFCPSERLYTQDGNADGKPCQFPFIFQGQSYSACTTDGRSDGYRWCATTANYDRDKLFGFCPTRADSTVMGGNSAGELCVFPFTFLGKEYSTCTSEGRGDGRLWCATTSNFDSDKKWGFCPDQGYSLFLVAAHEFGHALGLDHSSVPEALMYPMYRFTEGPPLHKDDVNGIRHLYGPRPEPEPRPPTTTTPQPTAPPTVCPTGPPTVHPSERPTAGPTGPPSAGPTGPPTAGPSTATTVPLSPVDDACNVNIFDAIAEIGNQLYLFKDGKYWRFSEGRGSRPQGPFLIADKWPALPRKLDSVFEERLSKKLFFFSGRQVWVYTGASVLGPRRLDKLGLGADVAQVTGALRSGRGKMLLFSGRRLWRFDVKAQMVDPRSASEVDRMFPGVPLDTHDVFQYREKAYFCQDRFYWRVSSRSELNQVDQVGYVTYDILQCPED
Description: as §1, §2

MMP-8 = MMP-8 (Homo sapiens, UniProt P22894); assay: as above; type: biochemical
Chain of MMP-8 (P22894 101-467, species assumed): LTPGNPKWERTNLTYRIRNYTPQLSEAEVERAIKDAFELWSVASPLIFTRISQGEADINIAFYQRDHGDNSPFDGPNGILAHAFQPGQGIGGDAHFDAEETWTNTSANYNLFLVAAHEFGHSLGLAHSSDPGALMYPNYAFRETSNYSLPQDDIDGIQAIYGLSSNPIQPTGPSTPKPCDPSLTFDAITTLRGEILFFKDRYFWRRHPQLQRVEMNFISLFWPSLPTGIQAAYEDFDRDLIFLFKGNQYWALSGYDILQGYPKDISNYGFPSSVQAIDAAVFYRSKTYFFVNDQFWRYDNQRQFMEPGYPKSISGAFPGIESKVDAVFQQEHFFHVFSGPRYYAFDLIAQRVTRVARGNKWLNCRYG
Description: as §1, §2

MMP-14 = MMP-14 (Homo sapiens, UniProt P50281); assay: as above; type: biochemical
Description: as §1, §2

[2] = activated MMP 2 nM, 37 °C, 30 min preincubation, non-radioactive compound, read-out: IC50 MMP-2
[3] = activated MMP 2 nM, 37 °C, 30 min preincubation, non-radioactive compound, read-out: IC50 MMP-13
[4] = activated MMP 2 nM, 37 °C, 30 min preincubation, non-radioactive compound, read-out: IC50 MMP-9
[5] = activated MMP 2 nM, 37 °C, 30 min preincubation, non-radioactive compound, read-out: IC50 MMP-8
[6] = activated MMP 2 nM, 37 °C, 30 min preincubation, non-radioactive compound, read-out: IC50 MMP-14

Row | Structure (SMILES) | LogD (compound labeled by [^99mTc]) [1] | IC50 (MMP-2; [2]) | IC50 (MMP-13; [3]) | IC50 (MMP-9; [4]) | IC50 (MMP-8; [5]) | IC50 (MMP-14; [6]) | other results
1 | NCCCC[C@H](NCc1cn(CCOCCOCCOCCN2CCN(C3(c4ccc(Oc5ccccc5)cc4)C(=O)NC(=O)NC3=O)CC2)nn1)C(=O)[O-].O=[C]=[Re+](=[C]=O)=[C]=O [MEA61, {[1-(2-{2-[2-(2-{4-[2,4,6-Trioxo-5-(4-phenoxyphenyl)hexahydropyrimidin-5-yl]piperazin-1-yl}ethoxy)ethoxy]ethoxy}ethyl)-1H-1,2,3-triazol-4-yl]methyl}-L-lysinate tricarbonylrhenium(I)] | 0.35 ± 0.23 | 3.6 ± 0.7 nM | 26 ± 0.6 nM | 8 ± 0.5 nM | 5.5 ± 0.4 nM | 14 ± 0.8 nM | 
2 | NCCCC[C@H](NCc1cn(CCOCCOCCOCCN2CCN(C3(c4ccc(Oc5ccccc5)cc4)C(=O)NC(=O)NC3=O)CC2)nn1)C(=O)O [compound 17, {[1-(2-{2-[2-(2-{4-[2,4,6-Trioxo-5-(4-phenoxyphenyl)hexahydropyrimidin-5-yl]piperazin-1-yl}ethoxy)ethoxy]ethoxy}ethyl)-1H-1,2,3-triazol-4-yl]methyl}-L-lysinate] |  |  |  |  |  |  | IC50 (MMP-2): 7 ± 3 nM; IC50 (MMP-13): 58 ± 9 nM; IC50 (MMP-9): 10 ± 2 nM; IC50 (MMP-8): 18 ± 3 nM; IC50 (MMP-14): 19 ± 2 nM
3 | N[C@@H](Cc1cn(CCOCCOCCOCCN2CCN(C3(c4ccc(Oc5ccccc5)cc4)C(=O)NC(=O)NC3=O)CC2)nn1)C(=O)O [compound 14, (S)-2-Amino-3-[1-(2-{2-[2-(2-{4-[2,4,6-trioxo-5-(4-phenoxyphenyl)-hexahydropyrimidine-5-yl]piperazine-1-yl}ethoxy)ethoxy]ethoxy}ethyl)-1H-1,2,3-triazol-4-yl]propionic acid potassium salt] |  |  |  |  |  |  | IC50 (MMP-2; read-out: IC50 MMP-2, activated MMP 2 nM, 37 °C, 30 min preincubation, non-radioactive compound): 0.6 ± 0.1 nM; IC50 (MMP-13; read-out: IC50 MMP-13, activated MMP 2 nM, 37 °C, 30 min preincubation, non-radioactive compound): 27 ± 9 nM; IC50 (MMP-9; read-out: IC50 MMP-9, activated MMP 2 nM, 37 °C, 30 min preincubation, non-radioactive compound): 1.4 ± 0.3 nM; IC50 (MMP-8; read-out: IC50 MMP-8, activated MMP 2 nM, 37 °C, 30 min preincubation, non-radioactive compound): 3.6 ± 2.6 nM; IC50 (MMP-14; read-out: IC50 MMP-14, activated MMP 2 nM, 37 °C, 30 min preincubation, non-radioactive compound): 1.5 ± 0.4 nM
4 | N[C@@H](Cc1cn(CCOCCOCCOCCN2CCN(C3(c4ccc(Oc5ccccc5)cc4)C(=O)NC(=O)NC3=O)CC2)nn1)C(=O)[O][Re](=[C]=O)(=[C]=O)=[C]=O [MEA39, (S)-2-Amino-3-[1-(2-{2-[2-(2-{4-[2,4,6-trioxo-5-(4-phenoxyphenyl)-hexahydropyrimidine-5-yl]piperazine-1-yl}ethoxy)ethoxy]ethoxy}ethyl)-1H-1,2,3-triazol-4-yl]propionic acid-carbonyl rhenium(I)] | 0.79 ± 0.03 | 2 ± 0.5 nM | 2 ± 0.3 nM | 0.9 ± 0.1 nM | 28 ± 7 nM | 5.9 ± 0.7 nM | 
